Earlier results on 1 compound are cited in patent US20120183988A1, “INTEIN-BASED F[…]-CIRCUIT FOR VITAMIN D DETECTION” (priority 2009, published 2012).

Structures are written as SMILES.

The conditions of the data set: cited from reference 2 (Haddad and Stamp 1974).

`C=C1CC[C@H](O)C/C1=C/C=C1\CCC[C@]2(C)[C@@H]([C@H](C)CCCC(C)(C)O)CC[C@@H]12` [25(OH)D3, 25-hydroxyvitamin D3]: the serum half-life result was “ca. 3 weeks”.
